According to patent publication US20200255438A1, “NOVEL SALTS” (priority 2017, published 2020):

Tests used:
[1] = Solid form stability under extremes of humidity (XRPD post DVS/GVS); format: physicochemical; settings: 0% RH and 90% RH, XRPD vs input
Source text: FIG. 1: XRPD patterns of citrate salt (Example 1), Ex-DVS examination at 0% RH, (top panel), 90% RH, (middle panel) and input (bottom panel).
FIG. 3: XRPD data for mesylate salt (Example 2) exposed to extremes of humidity post GVS cycle: input (bottom panel) output 0% (top panel) output 90% (middle panel).
X-Ray Powder Diffraction (XRPD)
X-Ray Powder Diffraction patterns were collected on a PANalytical diffractometer using Cu Kα radiation (45 kV, 40 mA), θ−θ goniometer, focusing mirror, divergence slit (½″), soller slits at both incident and divergent beam (4 mm) and a PIXcel detector. The software used for data collection was X'Pert Data Collector, version 2.2f and the data was presented using X'Pert Data Viewer, version 1.2d.
XRPD patterns were acquired under ambient conditions via a transmission foil sample stage (polyimide—Kapton, 12.7 μm thickness film) under ambient conditions using a PANalytical X'Pert PRO. The data collection range was 2.994-35°2θ with a continuous scan speed of 0.202004°s^−1.

[2] = Aqueous solubility (equilibration in de-ionised water, HPLC); format: physicochemical; settings: for Form retention of solids after solubility equilibration (XRPD): 24 hours in de-ionised water, solids dried at 50° C., re-analysed by XRPD; for solubility at 24 h: de-ionised water, water, thermodynamic from solid, 25° C.
Description: […] Solids were isolated by filtration to deliver clear liquors that were analyzed for API content by HPLC vs a known standard of free base (typical dilution of 50× using deionized water for salt candidates to deliver a working concentration in line with the standard at 0.5 mg/ml). The solids were dried at 50° C. and re-analysed by XRPD to confirm form retention—both mesylate and citrate retain form.

| Crystalline form stability / hydrate formation under different extremes of humidity (XRPD) [1] | Form retention of solids after solubility equilibration (XRPD) [2] | solubility at 24 h [2] [mg/mL] | SMILES |
| --- | --- | --- | --- |
| no tendency to form hydrates | retain form | 22 | Cc1cc(-c2ccc(C(F)(F)F)cc2)nc([C@H]2CC[C@@]3(CCN(C)C3=O)N2)n1.O=C(O)CC(O)(CC(=O)O)C(=O)O [Example 1, (2R,5S)-7-Methyl-2-[4-methyl-6-[4-(trifluoromethyl)-phenyl]pyrimidin-2-yl]-1,7-diazaspiro[4.4]nonan-6-one citric acid (citrate) salt] |
| no tendency to form hydrates | retain form | 65 | CS(=O)(=O)O.Cc1cc(-c2ccc(C(F)(F)F)cc2)nc([C@H]2CC[C@@]3(CCN(C)C3=O)N2)n1 [Example 2, (2R,5S)-7-Methyl-2-[4-methyl-6-[4-(trifluoromethyl)-phenyl]pyrimidin-2-yl]-1,7-diazaspiro[4.4]nonan-6-one methanesulfonic acid (mesylate) salt] |
